# Measured values from ChEMBL document CHEMBL1201862, “PubChem BioAssay data set” (2004).
#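 Protocol summary: plate cells (96-well), add compound at 5 concentrations, incubate 48 h, interpolate endpoints linearly. Abbreviation: GI50, concentration required for 50% inhibition of growth.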 Calls of active or inactive are those of the source. Rule as the data show it: active = GI50 up to about 1.1 µM and inactive = higher.
# Tests used:
# Assay in all cases: inhibition of tumour cell growth, NCI panel, 48 h
# [1] = tested on: SN12C
# [2] = tested on: RPMI-8226
# [3] = tested on: COLO 205
# [4] = tested on: KM12
# [5] = tested on: MOLT-4
# [6] = tested on: BT-549
# [7] = tested on: PC-3
# [8] = tested on: MDA-MB-435
# [9] = tested on: LOX IMVI
# [10] = tested on: Malme-3M
# [11] = tested on: SF-295
# [12] = tested on: OVCAR-3
# [13] = tested on: NCI-H226
# [14] = tested on: M14
# [15] = tested on: ACHN
# [16] = tested on: Hs-578T
# [17] = tested on: SK-OV-3
# [18] = tested on: U-251
# [19] = tested on: HCT-116
# [20] = tested on: RXF 393
# [21] = tested on: SK-MEL-5
# [22] = tested on: MDA-MB-231
# [23] = tested on: SW-620
# [24] = tested on: SR
# [25] = tested on: SK-MEL-2
# [26] = tested on: HCC 2998
# [27] = tested on: HT-29
# [28] = tested on: K562
# [29] = tested on: MDA-N
# [30] = tested on: SK-MEL-28
# [31] = tested on: HL-60
# [32] = tested on: SNB-19
# [33] = tested on: UACC-62
# [34] = tested on: OVCAR-5
# [35] = tested on: NCI-H522
# [36] = tested on: MCF7
# [37] = tested on: A498
# [38] = tested on: OVCAR-8
# [39] = tested on: SF-268
# [40] = tested on: DU-145
# [41] = tested on: UO-31
# [42] = tested on: 786-0
# [43] = tested on: IGROV-1
# [44] = tested on: EKVX
# [45] = tested on: A549
# [46] = tested on: NCI-H460
# [47] = tested on: NCI/ADR-RES
# [48] = tested on: CCRF-CEM
# [49] = tested on: SNB-75
# [50] = tested on: T47D
# [51] = tested on: NCI-H23
# [52] = tested on: OVCAR-4
# [53] = tested on: HOP-62
# [54] = tested on: CAKI-1
# [55] = tested on: HCT-15
smiles,measurement,setting,value
C=C(CCOC)CCC1CCCCC/C1=N\N(C)C (stereo not given),GI50,[1],> 100 µM (inactive)
same,GI50,[2],> 100 µM (inactive)
same,GI50,[3],> 100 µM (inactive)
same,GI50,[4],> 100 µM (inactive)
same,GI50,[5],> 100 µM (inactive)
same,GI50,[6],> 100 µM (inactive)
same,GI50,[7],> 100 µM (inactive)
same,GI50,[8],> 100 µM (inactive)
same,GI50,[9],> 100 µM (inactive)
same,GI50,[10],> 100 µM (inactive)
same,GI50,[11],> 100 µM (inactive)
same,GI50,[12],> 100 µM (inactive)
same,GI50,[13],> 100 µM (inactive)
same,GI50,[14],> 100 µM (inactive)
same,GI50,[15],> 100 µM (inactive)
same,GI50,[16],> 100 µM (inactive)
same,GI50,[17],> 100 µM (inactive)
same,GI50,[18],> 100 µM (inactive)
same,GI50,[19],> 100 µM (inactive)
same,GI50,[20],> 100 µM (inactive)
same,GI50,[21],> 100 µM (inactive)
same,GI50,[22],> 100 µM (inactive)
same,GI50,[23],> 100 µM (inactive)
same,GI50,[24],> 100 µM (inactive)
same,GI50,[25],> 100 µM (inactive)
same,GI50,[26],> 100 µM (inactive)
same,GI50,[27],> 100 µM (inactive)
same,GI50,[28],> 100 µM (inactive)
same,GI50,[29],> 100 µM (inactive)
same,GI50,[30],> 100 µM (inactive)
same,GI50,[31],> 100 µM (inactive)
same,GI50,[32],> 100 µM (inactive)
same,GI50,[33],> 100 µM (inactive)
same,GI50,[34],> 100 µM (inactive)
same,GI50,[35],> 100 µM (inactive)
same,GI50,[36],> 100 µM (inactive)
same,GI50,[37],> 100 µM (inactive)
same,GI50,[38],> 100 µM (inactive)
same,GI50,[39],> 100 µM (inactive)
same,GI50,[40],> 100 µM (inactive)
same,GI50,[41],> 100 µM (inactive)
same,GI50,[42],> 100 µM (inactive)
same,GI50,[43],> 100 µM (inactive)
same,GI50,[44],> 100 µM (inactive)
same,GI50,[45],> 100 µM (inactive)
same,GI50,[46],> 100 µM (inactive)
same,GI50,[47],> 100 µM (inactive)
same,GI50,[48],> 100 µM (inactive)
same,GI50,[49],> 100 µM (inactive)
same,GI50,[50],> 100 µM (inactive)
same,GI50,[51],> 100 µM (inactive)
same,GI50,[52],> 100 µM (inactive)
same,GI50,[53],> 100 µM (inactive)
same,GI50,[54],> 100 µM (inactive)
same,GI50,[55],> 100 µM
